Reference: publication PMC12502564, “Evaluation of LLM-generated peptide as foundation template for discovery of effective encrypted AMPs against clinical superbugs” (Microbiology Spectrum, 2025)
No end group written: not given here.

Key:
[1] = tested on: CRAB; assay: Time-kill curve; assay type: cell-based, carbapenem-resistant Acinetobacter baumannii; conditions: ~10^5 CFU mL^−1 in MH broth
Experimental: (§1) Bacteria in the logarithmic growth phase were diluted to approximately 10^5 CFU mL^−1 in MH broth and treated with peptides, polymyxin B, or vancomycin at final concentrations of 1/2 × MIC, 1 × MIC, 2 × MIC, and 4 × MIC. After the addition of the test compound, samples were taken at 0, 3, 6, 9, 12, and 24 h and serially diluted. Subsequently, 5 µL of the diluted samples were spread on agar plates and incubated at 37°C for 20 h. The bacterial concentration CFU mL^−1 at the corresponding time point of each sample was calculated based on the number of colonies on the agar plate, and the log10 (CFU mL^−1) was plotted against time (h).

[2] = tested on: MRSA; assay: Time-kill curve; assay type: cell-based, methicillin-resistant Staphylococcus aureus; conditions: ~10^5 CFU mL^−1 in MH broth
Experimental: as §1

[3] = tested on: MRSA; assay: MBC determination, MBC/MIC ratio; assay type: cell-based, methicillin-resistant Staphylococcus aureus; conditions: MBC/MIC ≤4 is considered bactericidal
Experimental: The MBC was determined using the microdilution broth method described above for MIC determination. After identifying the clear wells (no growth), 10 µL of the liquid from these wells was transferred and spread on a nutrient agar plate. The plate was incubated at 37°C for 18–24 h. […] The lowest concentration with no visible growth was considered the MBC.

[4] = tested on: HEK293 cells; assay type: cell-based
Experimental: Cytotoxicity of AMPs was determined using the Cell Counting Kit-8. HEK293 cells, bought from Procell (Wuhan, China), were inoculated in 96-well flat-bottom plates according to 5,000 cells/well in cell culture medium. After 24-h incubation at 37°C with 5% CO2 in atmosphere, medium was replaced with fresh medium and incubated with antimicrobial peptide solutions at various concentrations for 48 h. Cell viability was monitored by adding CCK-8 solution and measuring OD450 after 4 h. Zero-well and control-well were set during this experimental process. All experiments were performed with three independent replicates. The cell survival rate was calculated by the following formula, and the CC50 value of each AMPs was calculated by online tools: https://www.aatbio.com/tools/ic50-calculator. (2) Cell survival rate (%)=OD(AMP)− OD(zero)/OD(control)− OD(zero)×100%

[5] = tested on: S. aureus ATCC25923; assay type: cell-based, Staphylococcus aureus
Experimental: (§2) The MIC of all peptides was determined using the microdilution broth method in a 96-well plate. Peptides were dissolved in the DMSO with an initial concentration of 12,800 µg mL^−1. And cells of eight strains were separately suspended in the MHB at a density of approximately 10^5 CFU mL^−1. In the first column of the 96-well plate, 16 µL of peptide and 184 µL of MHB were added to each well to achieve a final concentration of 1,024 µg mL^−1. One-hundred microliters of MHB was added to each of the remaining wells. Then the first column of liquid was mixed well and diluted to the 12th column using the twofold dilution method. One-hundred microliters of prepared bacterial solution was added to all wells, and the 96-well plate was incubated at 37°C for 18–24 h. The MIC was defined as the concentration of the peptide in the well just preceding the first well showing visible turbidity. All experiments were performed in triplicate to ensure reliability.

[6] = tested on: CRAB; assay: Drug resistance assay, 20 passages; assay type: cell-based, carbapenem-resistant Acinetobacter baumannii; conditions: 20 passages at 0.5-fold MIC, n = 3
Experimental: Resistance development assays were performed following previous report ([43]). CRAB was cultured overnight at 37°C at 160 rpm in LB. In wells of a 96-well polypropylene flat-bottom plate, 5 µL of the overnight bacterial culture (10^7 CFU mL^−1) was added to 100 µL of peptides/antibiotic solutions (with final concentrations of 0.25 to 512 µg mL^−1) in MHB. Plates were incubated for 18 to 20 h at 37°C. The MIC, the lowest concentration of peptides/antibiotic that caused lack of visible bacterial growth, was determined for each bacterial species. Thereafter, 5 µL of the growth at the 0.5-fold MIC suspension (10^7 CFU mL^−1) was added to a fresh medium containing peptides/antibiotic, and these mixtures were incubated as described above. This was repeated for 20 passages. All experiments were performed in triplicate to ensure reliability.

[7] = tested on: CRAB; assay: Outer membrane permeability assay (NPN); assay type: cell-based, carbapenem-resistant Acinetobacter baumannii; conditions: 10^8 CFU mL^−1
Experimental: NPN binds phospholipids in the periplasmic space, so NPN assay was carried out to analyze the effect of AMPs on the outer membrane permeabilization of bacteria ([65]). After CRAB was grown to the exponential phase, bacteria cells were harvested and washed three times in washing buffer of 5 mM glucose and 5 mM HEPES (1:1, pH = 7.2) and then re-adjusted to 10^8 CFU mL^−1 in same buffer. Bacterial suspensions (150 µL/well) were loaded into black-walled, clear-bottom 96-well plates with lids. Following bacterial loading, 50 µL of 10 µM NPN was introduced into each well, with 30-min pre-incubation for CRAB. Post-incubation fluorescence signals were acquired using 350 nm excitation and 420 nm emission wavelengths. Compounds (10 µL) were then administered to achieve 1 × MIC/10 × MIC -equivalent final concentrations in the dye-loaded bacterial suspensions. Real-time fluorescence monitoring was performed with continuous acquisition during the first 10 min, followed by measurements at 10-min intervals. Negative controls received 10 µL sterile water in lieu of antimicrobial peptides while maintaining equivalent pre-incubation conditions. All experimental conditions were executed with three biological replicates.

[8] = tested on: CRAB; assay: Biofilm formation inhibition assay (crystal violet); assay type: cell-based, carbapenem-resistant Acinetobacter baumannii; conditions: 1/2 × MIC, 24 h, OD570
Experimental: The crystal violet staining method ([66]) was used to determine the inhibitory activity of the compounds against the biofilm formation of CRAB. The steps were as follows: prepare a bacterial solution (10^6 CFU mL^−1), mix it with different final concentrations of the compound (1/2 × MIC, 1 × MIC, 2 × MIC, and 4 × MIC), and culture it for 24 h. After discarding the supernatant, wash with PBS, add anhydrous methanol to fix the biofilm, and then stain it with crystal violet for 60 min after drying. After washing, dissolve the biofilm with 33% glacial acetic acid, and measure OD570. Three parallel experiments were performed, and the biofilm formation inhibition rate was calculated by the following formula:
(3) Biofilm formation inhibition rate (%)=(1−OD(sample)− OD(blank)/OD(negative)− OD(blank))×100%

[9] = tested on: E. coli ATCC25922; assay type: cell-based, Escherichia coli
Experimental: as §2

## WLKRILKWIGNKLKW [PL-15]
[1]; 1/2 × MIC
  time to kill CRAB: ≤ 6 h
[1]; 1 × MIC
  time to kill CRAB: ≤ 6 h
[1]; 2 × MIC
  time to complete bacterial eradication of CRAB: ≤ 3 h
[1]; 4 × MIC
  time to kill CRAB: ≤ 3 h
[2]; 1/2 × MIC
  time to eliminate MRSA: ≤ 6 h
[2]; 1 × MIC
  time to complete bacterial eradication of MRSA: ≤ 6 h
[2]; 2 × MIC
  time to full bacterial killing of MRSA: ≤ 3 h
[2]; 4 × MIC
  time to full bacterial killing of MRSA: ≤ 3 h
[3]
  bactericidal classification by MBC/MIC ratio: bactericidal effects
[4]
  log2CC50 (50% cell viability): ≥ 3
[5]
  MIC: lower than 11 µg mL^−1
[6]
  MIC change after serial passaging: within a twofold range
[7]; 1 × MIC
  NPN fluorescence (outer membrane permeability): marginal increase in fluorescence intensity
[7]; 10 × MIC
  NPN fluorescence (outer membrane permeability): rapid and significant increase in fluorescence intensity
[8]
  biofilm formation inhibition: moderate biofilm inhibition
[9]
  MIC: lower than 11 µg mL^−1
